In ChEMBL document CHEMBL4196079, “Molecular interaction of novel benzothiazolyl triazolium analogues with calf thymus DNA and HSA-their biological investigation as potent antimicrobial agents” (Eur J Med Chem, 2018):
Converted amounts (≈) assume the structure as drawn.

tested on: Pichia norvegensis; assay: Antifungal activity against Candida mycoderma after 24 hrs by NCCLS micro broth dilution method; assay type: functional; details: not given

| Compound | MIC |
| --- | --- |
| CCCCCCCn1cc(COCc2c(-c3ccccc3)nc3sc4ccccc4n23)nn1 | 32 µg/mL (≈ 69.6 µM) |
| CCOc1ccc2c(c1)sc1nc(-c3ccccc3)c(COCc3cn(Cc4ccc([N+](=O)[O-])cc4)nn3)n12 | 8 µg/mL (≈ 14.8 µM) |
| CCCCCCCn1cc(COCc2c(-c3ccccc3)nc3sc4cc(OCC)ccc4n23)nn1 | 32 µg/mL (≈ 63.5 µM) |
| Clc1cccc(Cn2cc(COCc3c(-c4ccccc4)nc4sc5ccccc5n34)nn2)c1 | 16 µg/mL (≈ 32.9 µM) |

tested on: Micrococcus luteus; assay: Antibacterial activity against Micrococcus luteus ATCC 4698 after 24 hrs by micro broth dilution method; assay type: functional; details: ATCC 4698, 24 h

| Compound | MIC |
| --- | --- |
| CCCCCCCn1cc(COCc2c(-c3ccccc3)nc3sc4ccccc4n23)nn1 | 128 µg/mL (≈ 278 µM) |
| CCOc1ccc2c(c1)sc1nc(-c3ccccc3)c(COCc3cn(Cc4ccc([N+](=O)[O-])cc4)nn3)n12 | 512 µg/mL (≈ 947 µM) |
| CCCCCCCn1cc(COCc2c(-c3ccccc3)nc3sc4cc(OCC)ccc4n23)nn1 | 128 µg/mL (≈ 254 µM) |
| Clc1cccc(Cn2cc(COCc3c(-c4ccccc4)nc4sc5ccccc5n34)nn2)c1 | 32 µg/mL (≈ 65.8 µM) |

tested on: Escherichia coli; assay: Antibacterial activity against Escherichia coli DH52 after 24 hrs by NCCLS micro broth dilution method; assay type: functional; details: DH52, 24 h

| Compound | MIC |
| --- | --- |
| CCCCCCCn1cc(COCc2c(-c3ccccc3)nc3sc4ccccc4n23)nn1 | 64 µg/mL (≈ 139 µM) |
| CCOc1ccc2c(c1)sc1nc(-c3ccccc3)c(COCc3cn(Cc4ccc([N+](=O)[O-])cc4)nn3)n12 | 128 µg/mL (≈ 237 µM) |
| CCCCCCCn1cc(COCc2c(-c3ccccc3)nc3sc4cc(OCC)ccc4n23)nn1 | 128 µg/mL (≈ 254 µM) |
| Clc1cccc(Cn2cc(COCc3c(-c4ccccc4)nc4sc5ccccc5n34)nn2)c1 | 64 µg/mL (≈ 132 µM) |

tested on: Candida albicans; assay: Antifungal activity against Candida albicans ATCC 76615 after 24 hrs by NCCLS micro broth dilution method; assay type: functional; details: ATCC 76615, 24 h

| Compound | MIC |
| --- | --- |
| CCCCCCCn1cc(COCc2c(-c3ccccc3)nc3sc4ccccc4n23)nn1 | 32 µg/mL (≈ 69.6 µM) |
| CCOc1ccc2c(c1)sc1nc(-c3ccccc3)c(COCc3cn(Cc4ccc([N+](=O)[O-])cc4)nn3)n12 | 32 µg/mL (≈ 59.2 µM) |
| CCCCCCCn1cc(COCc2c(-c3ccccc3)nc3sc4cc(OCC)ccc4n23)nn1 | 32 µg/mL (≈ 63.5 µM) |
| Clc1cccc(Cn2cc(COCc3c(-c4ccccc4)nc4sc5ccccc5n34)nn2)c1 | 8 µg/mL (≈ 16.5 µM) |

tested on: Bacillus subtilis; assay: Antibacterial activity against Bacillus subtilis ATCC 21216 after 24 hrs by NCCLS micro broth dilution method; assay type: functional; details: ATCC 21216, 24 h

| Compound | MIC |
| --- | --- |
| CCCCCCCn1cc(COCc2c(-c3ccccc3)nc3sc4ccccc4n23)nn1 | 128 µg/mL (≈ 278 µM) |
| CCOc1ccc2c(c1)sc1nc(-c3ccccc3)c(COCc3cn(Cc4ccc([N+](=O)[O-])cc4)nn3)n12 | 256 µg/mL (≈ 474 µM) |
| CCCCCCCn1cc(COCc2c(-c3ccccc3)nc3sc4cc(OCC)ccc4n23)nn1 | 128 µg/mL (≈ 254 µM) |
| Clc1cccc(Cn2cc(COCc3c(-c4ccccc4)nc4sc5ccccc5n34)nn2)c1 | 32 µg/mL (≈ 65.8 µM) |

tested on: Bacillus; assay: Antibacterial activity against Bacillus proteus ATCC 13315 after 24 hrs by NCCLS micro broth dilution method; assay type: functional; details: ATCC 13315, 24 h

| Compound | MIC |
| --- | --- |
| CCCCCCCn1cc(COCc2c(-c3ccccc3)nc3sc4ccccc4n23)nn1 | 64 µg/mL (≈ 139 µM) |
| CCOc1ccc2c(c1)sc1nc(-c3ccccc3)c(COCc3cn(Cc4ccc([N+](=O)[O-])cc4)nn3)n12 | 32 µg/mL (≈ 59.2 µM) |
| CCCCCCCn1cc(COCc2c(-c3ccccc3)nc3sc4cc(OCC)ccc4n23)nn1 | 128 µg/mL (≈ 254 µM) |
| Clc1cccc(Cn2cc(COCc3c(-c4ccccc4)nc4sc5ccccc5n34)nn2)c1 | 64 µg/mL (≈ 132 µM) |

tested on: Cyberlindnera jadinii; assay: Antifungal activity against Candida utilis after 24 hrs by NCCLS micro broth dilution method; assay type: functional; details: Williopsis jadinii

| Compound | MIC |
| --- | --- |
| CCCCCCCn1cc(COCc2c(-c3ccccc3)nc3sc4ccccc4n23)nn1 | 16 µg/mL (≈ 34.8 µM) |
| CCOc1ccc2c(c1)sc1nc(-c3ccccc3)c(COCc3cn(Cc4ccc([N+](=O)[O-])cc4)nn3)n12 | 4 µg/mL (≈ 7.4 µM) |
| CCCCCCCn1cc(COCc2c(-c3ccccc3)nc3sc4cc(OCC)ccc4n23)nn1 | 64 µg/mL (≈ 127 µM) |
| Clc1cccc(Cn2cc(COCc3c(-c4ccccc4)nc4sc5ccccc5n34)nn2)c1 | 32 µg/mL (≈ 65.8 µM) |

tested on: Shigella dysenteriae; assay: Antibacterial activity against Shigella dysenteriae after 24 hrs by NCCLS micro broth dilution method; assay type: functional; details: not given

| Compound | MIC |
| --- | --- |
| CCCCCCCn1cc(COCc2c(-c3ccccc3)nc3sc4ccccc4n23)nn1 | 128 µg/mL (≈ 278 µM) |
| CCOc1ccc2c(c1)sc1nc(-c3ccccc3)c(COCc3cn(Cc4ccc([N+](=O)[O-])cc4)nn3)n12 | 128 µg/mL (≈ 237 µM) |
| CCCCCCCn1cc(COCc2c(-c3ccccc3)nc3sc4cc(OCC)ccc4n23)nn1 | 128 µg/mL (≈ 254 µM) |
| Clc1cccc(Cn2cc(COCc3c(-c4ccccc4)nc4sc5ccccc5n34)nn2)c1 | 32 µg/mL (≈ 65.8 µM) |

tested on: Saccharomyces cerevisiae; assay: Antifungal activity against Saccharomyces cerevisiae after 24 hrs by NCCLS micro broth dilution method; assay type: functional; details: not given

| Compound | MIC |
| --- | --- |
| CCCCCCCn1cc(COCc2c(-c3ccccc3)nc3sc4ccccc4n23)nn1 | 32 µg/mL (≈ 69.6 µM) |
| CCOc1ccc2c(c1)sc1nc(-c3ccccc3)c(COCc3cn(Cc4ccc([N+](=O)[O-])cc4)nn3)n12 | 16 µg/mL (≈ 29.6 µM) |
| CCCCCCCn1cc(COCc2c(-c3ccccc3)nc3sc4cc(OCC)ccc4n23)nn1 | 64 µg/mL (≈ 127 µM) |
| Clc1cccc(Cn2cc(COCc3c(-c4ccccc4)nc4sc5ccccc5n34)nn2)c1 | 64 µg/mL (≈ 132 µM) |

tested on: Staphylococcus aureus; assay: Antibacterial activity against methicillin-resistant Staphylococcus aureus N315 after 24 hrs by NCCLS micro broth dilution method; assay type: functional; details: N315, 24 h

| Compound | MIC |
| --- | --- |
| CCCCCCCn1cc(COCc2c(-c3ccccc3)nc3sc4ccccc4n23)nn1 | 128 µg/mL (≈ 278 µM) |
| CCOc1ccc2c(c1)sc1nc(-c3ccccc3)c(COCc3cn(Cc4ccc([N+](=O)[O-])cc4)nn3)n12 | 128 µg/mL (≈ 237 µM) |
| CCCCCCCn1cc(COCc2c(-c3ccccc3)nc3sc4cc(OCC)ccc4n23)nn1 | 64 µg/mL (≈ 127 µM) |
| Clc1cccc(Cn2cc(COCc3c(-c4ccccc4)nc4sc5ccccc5n34)nn2)c1 | 32 µg/mL (≈ 65.8 µM) |

tested on: Salmonella typhi; assay: Antibacterial activity against Salmonella typhi after 24 hrs by NCCLS micro broth dilution method; assay type: functional, Salmonella enterica subsp. enterica serovar Typhi; details: Salmonella enterica

| Compound | MIC |
| --- | --- |
| CCCCCCCn1cc(COCc2c(-c3ccccc3)nc3sc4ccccc4n23)nn1 | 64 µg/mL (≈ 139 µM) |
| CCOc1ccc2c(c1)sc1nc(-c3ccccc3)c(COCc3cn(Cc4ccc([N+](=O)[O-])cc4)nn3)n12 | 4 µg/mL (≈ 7.4 µM) |
| CCCCCCCn1cc(COCc2c(-c3ccccc3)nc3sc4cc(OCC)ccc4n23)nn1 | 128 µg/mL (≈ 254 µM) |
| Clc1cccc(Cn2cc(COCc3c(-c4ccccc4)nc4sc5ccccc5n34)nn2)c1 | 64 µg/mL (≈ 132 µM) |

tested on: Aspergillus flavus; assay: Antifungal activity against Aspergillus flavus after 24 hrs by NCCLS micro broth dilution method; assay type: functional; details: not given

| Compound | MIC |
| --- | --- |
| CCCCCCCn1cc(COCc2c(-c3ccccc3)nc3sc4ccccc4n23)nn1 | 256 µg/mL (≈ 557 µM) |
| CCOc1ccc2c(c1)sc1nc(-c3ccccc3)c(COCc3cn(Cc4ccc([N+](=O)[O-])cc4)nn3)n12 | 128 µg/mL (≈ 237 µM) |
| CCCCCCCn1cc(COCc2c(-c3ccccc3)nc3sc4cc(OCC)ccc4n23)nn1 | 128 µg/mL (≈ 254 µM) |
| Clc1cccc(Cn2cc(COCc3c(-c4ccccc4)nc4sc5ccccc5n34)nn2)c1 | 128 µg/mL (≈ 263 µM) |

tested on: Staphylococcus aureus; assay: Antibacterial activity against Staphylococcus aureus ATCC 25923 after 24 hrs by NCCLS micro broth dilution method; assay type: functional; details: ATCC 25923, 24 h

| Compound | MIC |
| --- | --- |
| CCCCCCCn1cc(COCc2c(-c3ccccc3)nc3sc4ccccc4n23)nn1 | 128 µg/mL (≈ 278 µM) |
| CCOc1ccc2c(c1)sc1nc(-c3ccccc3)c(COCc3cn(Cc4ccc([N+](=O)[O-])cc4)nn3)n12 | 128 µg/mL (≈ 237 µM) |
| CCCCCCCn1cc(COCc2c(-c3ccccc3)nc3sc4cc(OCC)ccc4n23)nn1 | 128 µg/mL (≈ 254 µM) |
| Clc1cccc(Cn2cc(COCc3c(-c4ccccc4)nc4sc5ccccc5n34)nn2)c1 | 64 µg/mL (≈ 132 µM) |

tested on: Escherichia coli; assay: Antibacterial activity against Escherichia coli JM109 after 24 hrs by NCCLS micro broth dilution method; assay type: functional; details: JM109, 24 h

| Compound | MIC |
| --- | --- |
| CCCCCCCn1cc(COCc2c(-c3ccccc3)nc3sc4ccccc4n23)nn1 | 128 µg/mL (≈ 278 µM) |
| CCOc1ccc2c(c1)sc1nc(-c3ccccc3)c(COCc3cn(Cc4ccc([N+](=O)[O-])cc4)nn3)n12 | 2 µg/mL (≈ 3.7 µM) |
| CCCCCCCn1cc(COCc2c(-c3ccccc3)nc3sc4cc(OCC)ccc4n23)nn1 | 64 µg/mL (≈ 127 µM) |
| Clc1cccc(Cn2cc(COCc3c(-c4ccccc4)nc4sc5ccccc5n34)nn2)c1 | 64 µg/mL (≈ 132 µM) |

tested on: Pseudomonas aeruginosa; assay: Antibacterial activity against Pseudomonas aeruginosa ATCC 27853 after 24 hrs by NCCLS micro broth dilution method; assay type: functional; details: ATCC 27853, 24 h

| Compound | MIC |
| --- | --- |
| CCCCCCCn1cc(COCc2c(-c3ccccc3)nc3sc4ccccc4n23)nn1 | 64 µg/mL (≈ 139 µM) |
| CCOc1ccc2c(c1)sc1nc(-c3ccccc3)c(COCc3cn(Cc4ccc([N+](=O)[O-])cc4)nn3)n12 | 128 µg/mL (≈ 237 µM) |
| CCCCCCCn1cc(COCc2c(-c3ccccc3)nc3sc4cc(OCC)ccc4n23)nn1 | 128 µg/mL (≈ 254 µM) |
| Clc1cccc(Cn2cc(COCc3c(-c4ccccc4)nc4sc5ccccc5n34)nn2)c1 | 32 µg/mL (≈ 65.8 µM) |
